From ChEMBL document CHEMBL1811896, “Isoflavone dimers and other bioactive constituents from the figs of Ficus mucuso” (J Nat Prod, 2011)
Calls of active or inactive are those of the source. The rule behind the calls is not given here.

Experiments:
[1] = target: T1, Enoyl-acyl-carrier protein reductase (Plasmodium falciparum) (UniProt Q965D5); test: (§1) Inhibition of Plasmodium falciparum Enoyl-ACP reductase using crotonyl-CoA as substrate peincubated for 5 mins measured after 10 mins of substrate addition by UV-vis spectrophotometry
T1 sequence (whole entry): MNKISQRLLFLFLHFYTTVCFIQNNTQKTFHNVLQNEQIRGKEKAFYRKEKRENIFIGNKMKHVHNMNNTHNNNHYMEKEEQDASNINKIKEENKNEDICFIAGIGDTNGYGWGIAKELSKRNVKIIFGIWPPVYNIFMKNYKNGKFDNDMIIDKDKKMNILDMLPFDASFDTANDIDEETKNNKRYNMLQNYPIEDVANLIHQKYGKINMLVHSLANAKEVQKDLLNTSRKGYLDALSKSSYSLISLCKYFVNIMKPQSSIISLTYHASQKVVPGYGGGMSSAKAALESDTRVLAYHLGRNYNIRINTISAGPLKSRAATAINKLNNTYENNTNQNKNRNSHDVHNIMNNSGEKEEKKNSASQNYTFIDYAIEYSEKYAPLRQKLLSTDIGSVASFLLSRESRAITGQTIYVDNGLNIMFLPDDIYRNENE

[2] = Inhibition of Escherichia coli beta-glucuronidase assessed as inhibition of p-nitrophenyl-beta-D-glucuronide hydrolysis preincubated for 30 mins measured 30 mins after substrate addition by spectrophotometry
[3] = system: Escherichia coli; test: Inhibition of Escherichia coli beta-glucuronidase assessed as inhibition of p-nitrophenyl-beta-D-glucuronide hydrolysis at 0.20 mM preincubated for 30 mins measured 30 mins after substrate addition by spectrophotometry
[4] = target: T1, Enoyl-acyl-carrier protein reductase (Plasmodium falciparum); test: Inhibition of Plasmodium falciparum Enoyl-ACP reductase using crotonyl-CoA as substrate at 0.25 mM peincubated for 5 mins measured after 10 mins of substrate addition by UV-vis spectrophotometry
[5] = system: Escherichia coli; test: Inhibition of Escherichia coli beta-glucuronidase assessed as inhibition of p-nitrophenyl-beta-D-glucuronide hydrolysis at 0.08 mM preincubated for 30 mins measured 30 mins after substrate addition by spectrophotometry
[6] = target: T1, Enoyl-acyl-carrier protein reductase (Plasmodium falciparum); settings: 0.05 mM
Description: Inhibition of Plasmodium falciparum Enoyl-ACP reductase using crotonyl-CoA as substrate at 0.05 mM peincubated for 5 mins measured after 10 mins of substrate addition by UV-vis spectrophotometry

[7] = target: T2, Enoyl-acyl-carrier protein reductase (Plasmodium falciparum, UniProt Q965D5); test: as §1
T2 sequence (Q965D5 whole entry): T1 sequence (whole entry)

[8] = target: T1, Enoyl-acyl-carrier protein reductase (Plasmodium falciparum); settings: 0.1 mM
Description: Inhibition of Plasmodium falciparum Enoyl-ACP reductase using crotonyl-CoA as substrate at 0.1 mM peincubated for 5 mins measured after 10 mins of substrate addition by UV-vis spectrophotometry

[9] = target: T1, Enoyl-acyl-carrier protein reductase (Plasmodium falciparum); test: Inhibition of Plasmodium falciparum Enoyl-ACP reductase using crotonyl-CoA as substrate at 0.025 mM peincubated for 5 mins measured after 10 mins of substrate addition by UV-vis spectrophotometry
[10] = system: Escherichia coli; test: Inhibition of Escherichia coli beta-glucuronidase assessed as inhibition of p-nitrophenyl-beta-D-glucuronide hydrolysis at 0.10 mM preincubated for 30 mins measured 30 mins after substrate addition by spectrophotometry
[11] = system: Escherichia coli; test: Ratio of D-saccharic acid-1,4-lactone IC50 to compound IC50 for Escherichia coli beta-glucuronidase
[12] = system: Escherichia coli; test: Inhibition of Escherichia coli beta-glucuronidase assessed as inhibition of p-nitrophenyl-beta-D-glucuronide hydrolysis at 0.05 mM preincubated for 30 mins measured 30 mins after substrate addition by spectrophotometry
[13] = target: T1, Enoyl-acyl-carrier protein reductase (Plasmodium falciparum); test: Inhibition of Plasmodium falciparum Enoyl-ACP reductase using crotonyl-CoA as substrate at 0.15 mM peincubated for 5 mins measured after 10 mins of substrate addition by UV-vis spectrophotometry

| SMILES | IC50 [2] | inhibition [3] | inhibition [4] | also measured |
| --- | --- | --- | --- | --- |
| COc1ccc(C(=O)O)cc1 [p-ANISIC ACID] | 124 µM | 66.2% | inactive | inhibition [1]: inactive |
| C[C@@H]1CC[C@]2(C(=O)O)CC[C@]3(C)C(=CC[C@@H]4[C@@]5(C)C[C@@H](O)[C@H](OC(=O)/C=C/c6ccc(O)cc6)C(C)(C)[C@@H]5CC[C@]43C)[C@@H]2[C@]1(C)O | – | – | 3.9% | inhibition [5]: 15.9% |
| Oc1cc(Cl)ccc1Oc1ccc(Cl)cc1Cl [TRICLOSAN] | – | – | – | inhibition [6]: 99.5%; IC50 [7]: 0.2 µM |
| COc1c(-c2ccc(O)c(O)c2)oc2cc(O)cc(O)c2c1=O [3-O-METHYLQUERCETIN] | 44.6 µM | 85.2% | – | inhibition [8]: 88.2%; IC50 [7]: 35.2 µM |
| CC(C)=CCc1cc(-c2coc3c(C(C=C(C)C)c4cc(-c5coc6cc(O)cc(O)c6c5=O)ccc4O)c(O)cc(O)c3c2=O)ccc1O (centres undefined) [MUCUSISOFLAVONE C] | 3.08 µM | – | – | IC50 [7]: 7.69 µM; inhibition [9]: 89.1%; inhibition [10]: 94% |
| CC1=C[C@H](c2cc(-c3coc4cc(O)cc(O)c4c3=O)ccc2O)[C@](C)(/C=C/c2cc(-c3coc4cc(O)cc(O)c4c3=O)ccc2O)CC1 [MUCUSISOFLAVONE A] | 0.68 µM | 98.7% | inactive | inhibition [1]: inactive; Ratio IC50 [11]: 71 |
| O=C(O)[C@@H](O)[C@H]1OC(=O)[C@H](O)[C@H]1O | – | – | – | inhibition [12]: 99.5% |
| CCCCC/C=C/CCCCCCC[C@@H](O)[C@@H](O)[C@H](CO)NC(=O)[C@H](O)CCCCCCCCCCCCCCCCCCCCCC | – | – | inactive | inhibition [5]: 1.7%; inhibition [1]: inactive |
| CC(C)=CCc1c(O)cc2occ(-c3ccc(O)cc3)c(=O)c2c1O [WIGHTEONE] | 4.03 µM | 97.3% | – | inhibition [13]: 42.6% |
| CC(C)=C[C@@H]1C[C@](C)(/C=C/c2cc(-c3coc4cc(O)cc(O)c4c3=O)ccc2O)Oc2ccc(-c3coc4cc(O)cc(O)c4c3=O)cc21 [MUCUSISOFLAVONE B] | 14 µM | – | inactive | inhibition [1]: inactive; inhibition [10]: 70.1% |
| CC1(C)C=Cc2c(cc3occ(-c4ccc(O)cc4)c(=O)c3c2O)O1 | – | – | 12.6% | inhibition [5]: 17.6% |
| O=C(O)c1ccc(O)c(O)c1 | – | 23.5% | – | – |
| O=c1cc(-c2ccc(O)cc2)oc2cc(O)cc(O)c12 | – | 15.7% | – | – |
| O=c1c(O)c(-c2ccc(O)cc2)oc2cc(O)cc(O)c12 [KAEMPFEROL] | 27.6 µM | 87.5% | 6.5% | – |
